Reference: paper PMC7397748, “Unlabeled lysophosphatidic acid receptor binding in free solution as determined by a compensated interferometric reader” (Journal of Lipid Research, 2020)

target: T1, lysophosphatidic acid receptor 1 (LPA1) (Homo sapiens, UniProt Q92633); assay: label-free free-solution assay with compensated interferometric reader (FSA-CIR), receptor nanovesicles, vector-subtracted; format: binding; conditions: read-out: KD ± SEM
T1 construct: gene LPAR1; human LPA1 with N-terminal HA tag (HA-LPA1), in B103 cell membrane nanovesicles
T1 sequence (Q92633 whole entry): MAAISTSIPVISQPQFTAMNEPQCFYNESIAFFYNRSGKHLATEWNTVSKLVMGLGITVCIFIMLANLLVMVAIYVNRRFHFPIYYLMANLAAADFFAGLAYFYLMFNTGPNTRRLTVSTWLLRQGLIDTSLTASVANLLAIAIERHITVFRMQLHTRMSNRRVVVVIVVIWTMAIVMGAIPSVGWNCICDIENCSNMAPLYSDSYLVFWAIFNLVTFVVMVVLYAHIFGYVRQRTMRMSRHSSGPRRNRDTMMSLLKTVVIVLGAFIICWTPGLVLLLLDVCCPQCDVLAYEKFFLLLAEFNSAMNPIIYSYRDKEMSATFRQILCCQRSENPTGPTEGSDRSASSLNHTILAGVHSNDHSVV

Kd [nM]	Structure (SMILES)
1.69	CCCCCCCCCCCCCCCC(=O)OC[C@@H](O)COP(=O)(O)O [16:0 LPA, 1-palmitoyl-LPA]
2.08	CCCCCCCC/C=C\CCCCCCCC(=O)OC[C@@H](O)COP(=O)(O)O [18:1 LPA, 1-oleoyl-LPA]
2.59	CCCCC/C=C\C/C=C\C/C=C\C/C=C\CCCC(=O)OC[C@@H](O)COP(=O)(O)O [20:4 LPA, 1-arachidonoyl-LPA]
